In the assay the test system is L1210 leukemia ip in BDF1 mice, survival T/C. Put plainly: NCI In Vivo Anticancer Drug Screen. Data for tumor model L1210 Leukemia (intraperitoneal) in B6D2F1 (BDF1) mice. Particulars: endpoint: mean survival time, higher = longer survival. In a few lines:
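In this screen, tumor-bearing mice given compound are compared to those given vehicle, and their survival values are reported as a treated-to-control quotient.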

[1] abbreviates: dose: 100.0 mg/kg/injection, schedule: Q01DX009 (ip), vehicle: saline.
Setting [2] is: dose: 200.0 mg/kg/injection, schedule: Q01DX009 (ip), vehicle: saline.
Setting [3] is: dose: 400.0 mg/kg/injection, schedule: Q01DX009 (ip), vehicle: saline.
The mark [4] stands for this setting: dose: 100.0 mg/kg/injection, schedule: Q01DX009 (ip), vehicle: Klucel (hydroxypropylcellulose) (HPC).
[5] abbreviates: dose: 200.0 mg/kg/injection, schedule: Q01DX009 (ip), vehicle: Klucel (hydroxypropylcellulose) (HPC).
The mark [6] stands for this setting: dose: 100.0 mg/kg/injection, schedule: Q04DX003 (ip), vehicle: saline with Tween-80.
Setting [7] is: dose: 200.0 mg/kg/injection, schedule: Q04DX003 (ip), vehicle: saline with Tween-80.
[8] abbreviates: dose: 400.0 mg/kg/injection, schedule: Q04DX003 (ip), vehicle: saline with Tween-80.
Setting [9] is: dose: 100.0 mg/kg/injection, schedule: Q04DX003 (ip), vehicle: Klucel (hydroxypropylcellulose) (HPC).
Where [10] appears, read: dose: 200.0 mg/kg/injection, schedule: Q04DX003 (ip), vehicle: Klucel (hydroxypropylcellulose) (HPC).
[11] abbreviates: dose: 75.0 mg/kg/injection, schedule: Q01DX001 (ip), vehicle: saline.
The mark [12] stands for this setting: dose: 150.0 mg/kg/injection, schedule: Q01DX001 (ip), vehicle: saline.
Where [13] appears, read: dose: 100.0 mg/kg/injection, schedule: Q04DX003 (ip), vehicle: other.
Setting [14] is: dose: 200.0 mg/kg/injection, schedule: Q04DX003 (ip), vehicle: other.
Setting [15] is: dose: 400.0 mg/kg/injection, schedule: Q04DX003 (ip), vehicle: other.
The mark [16] stands for this setting: dose: 400.0 mg/kg/injection, schedule: Q01DX009 (ip), vehicle: Klucel (hydroxypropylcellulose) (HPC).

Inconclusive results and toxic doses are left out. Square brackets hold non-standard residues; d marks the D form. Peptide text beside a SMILES is read from it. * marks the point of attachment. ξ: configuration not given here. Cbz = O=C(OCc1ccccc1)*; ξI = CCC(C)C(N)C(=O)O

For the compound `CC(=O)Nc1ccc(S(=O)(=O)Nc2ccccc2F)cc1`, the T/C by setting is: under setting [1], 102 % of control; under setting [2], 102 % of control; under setting [3], 105 % of control.

As to `CCO/C=N\c1[nH]ncc1C#N`, the T/C reads like this: (dose: 50.0 mg/kg/injection, schedule: Q01DX009 (ip), vehicle: Klucel (hydroxypropylcellulose) (HPC)) 93 % of control; under setting [4], 107 % of control; under setting [5], 103 % of control.

Regarding `O=C1CCC(=O)N1CCC(=O)N(C(=O)NC1CCCCC1)C1CCCCC1`, the T/C is 98 % of control (dose: 50.0 mg/kg/injection, schedule: Q01DX009 (ip), vehicle: saline); 95 % of control under setting [1]; 100 % of control under setting [6]; 101 % of control under setting [2]; 106 % of control under setting [7]; 98 % of control under setting [3]. Moreover, the T/C under setting [8] was 100 % of control.

On to `Cc1c(Cl)c(C)c(Cl)c(O)c1Cl`, for which the T/C reads like this: under setting [6], 97 % of control; under setting [7], 96 % of control; under setting [8], 97 % of control.

As to `CN(C)N=Nc1ccc(C(=O)N/N=C/c2ccc(Cl)cc2)cc1`, the T/C (dose: 50.0 mg/kg/injection, schedule: Q04DX003 (ip), vehicle: Klucel (hydroxypropylcellulose) (HPC)) is 99 % of control; the T/C under setting [9] was 97 % of control; the T/C under setting [10] was 103 % of control.

For the compound `CN1C2CCC1CC(=O)C2`, the T/C is, setting by setting: under setting [11], 103 % of control; under setting [12], 102 % of control.

Regarding `CC1CCC(C(=O)O)ON1` (stereo not drawn), the T/C was 114 % of control (dose: 100.0 mg/kg/injection, schedule: Q04DX002 (ip), vehicle: saline); 95 % of control (dose: 200.0 mg/kg/injection, schedule: Q04DX002 (ip), vehicle: saline); 100 % of control (dose: 400.0 mg/kg/injection, schedule: Q04DX002 (ip), vehicle: saline).

On to `CC(=O)C(C)(NCc1ccccc1)c1ccccc1` (stereo not drawn), for which the T/C reads like this: (dose: 50.0 mg/kg/injection, schedule: Q04DX003 (ip), vehicle: saline) 97 % of control; under setting [13], 95 % of control; (dose: 100.0 mg/kg/injection, schedule: Q04DX003 (ip), vehicle: saline) 97 % of control; under setting [14], 93 % of control; (dose: 200.0 mg/kg/injection, schedule: Q04DX003 (ip), vehicle: saline) 102 % of control; under setting [15], 87 % of control.

Take `CC(C)(C)N(Cl)C#N`: the T/C runs as follows: (dose: 100.0 mg/kg/injection, schedule: Q04DX002 (ip), vehicle: saline with Tween-80) 93 % of control; (dose: 200.0 mg/kg/injection, schedule: Q04DX002 (ip), vehicle: saline with Tween-80) 97 % of control; (dose: 400.0 mg/kg/injection, schedule: Q04DX002 (ip), vehicle: saline with Tween-80) 97 % of control.

On to `C=CCc1ccc(OC(=O)Nc2ccccc2C)c(OC)c1`, for which the T/C was 96 % of control under setting [4] and 95 % of control under setting [5].

Turning to `O=Nc1c(O)ccc2ncccc12`, the T/C is, setting by setting: (dose: 75.0 mg/kg/injection, schedule: Q01DX001 (ip), vehicle: other) 104 % of control; (dose: 150.0 mg/kg/injection, schedule: Q01DX001 (ip), vehicle: other) 104 % of control.

As to `Cc1ccc(N=Nc2ccc(N(C)C)cc2)cc1`, the T/C runs as follows: under setting [4], 90 % of control; under setting [5], 92 % of control; under setting [16], 90 % of control.

In the case of `CCN(CC)Cc1ccccc1COC(=O)c1ccc(Br)cc1`, the T/C reads like this: (dose: 100.0 mg/kg/injection, schedule: Q04DX002 (ip), vehicle: Klucel (hydroxypropylcellulose) (HPC)) 101 % of control; (dose: 200.0 mg/kg/injection, schedule: Q04DX002 (ip), vehicle: Klucel (hydroxypropylcellulose) (HPC)) 108 % of control; (dose: 400.0 mg/kg/injection, schedule: Q04DX002 (ip), vehicle: Klucel (hydroxypropylcellulose) (HPC)) 101 % of control.

Turning to `O=[N+]([O-])c1ccc(N/N=C(/CCCCl)c2ccccc2)c([N+](=O)[O-])c1`, the T/C by setting is: under setting [6], 96 % of control; under setting [7], 95 % of control; under setting [8], 91 % of control.

With `CC(=O)Nc1ccc(S(=O)(=O)CO)cc1`, the T/C (dose: 100.0 mg/kg/injection, schedule: Q01DX001 (ip), vehicle: Klucel (hydroxypropylcellulose) (HPC)) was 102 % of control; the T/C (dose: 200.0 mg/kg/injection, schedule: Q01DX001 (ip), vehicle: Klucel (hydroxypropylcellulose) (HPC)) was 102 % of control; the T/C (dose: 400.0 mg/kg/injection, schedule: Q01DX001 (ip), vehicle: Klucel (hydroxypropylcellulose) (HPC)) was 102 % of control.

Take `O=c1[nH]c2cc(Cl)c(Cl)cc2o1`: the T/C reads like this: (dose: 19.0 mg/kg/injection, schedule: Q01DX Z (ip), vehicle: carboxymethylcellulose (CMC)) 95 % of control; (dose: 37.5 mg/kg/injection, schedule: Q01DX Z (ip), vehicle: carboxymethylcellulose (CMC)) 95 % of control; (dose: 75.0 mg/kg/injection, schedule: Q01DX Z (ip), vehicle: carboxymethylcellulose (CMC)) 96 % of control; under setting [4], 93 % of control; under setting [13], 102 % of control; under setting [5], 93 % of control. Moreover, the T/C by setting is: under setting [14], 95 % of control; under setting [15], 97 % of control.

Regarding `CCS(=O)(=O)Nc1ccc(Nc2c3ccccc3nc3ccccc23)c(OC)c1`, the T/C is 152 % of control (dose: 2.5 mg/kg/injection, schedule: Q01DX009 (ip), vehicle: Klucel (hydroxypropylcellulose) (HPC)); 168 % of control (dose: 5.0 mg/kg/injection, schedule: Q01DX009 (ip), vehicle: Klucel (hydroxypropylcellulose) (HPC)); 155 % of control (dose: 5.0 mg/kg/injection, schedule: Q01DX009 (ip), vehicle: saline); 163 % of control (dose: 10.0 mg/kg/injection, schedule: Q01DX009 (ip), vehicle: Klucel (hydroxypropylcellulose) (HPC)); 216 % of control (dose: 10.0 mg/kg/injection, schedule: Q01DX009 (ip), vehicle: saline); 86 % of control (dose: 20.0 mg/kg/injection, schedule: Q01DX009 (ip), vehicle: Klucel (hydroxypropylcellulose) (HPC)).

Turning to `CCC(C)C(NC(=O)CNC(=O)CNC(=O)OCc1ccccc1)C(=O)OC` (stereo not drawn) (Cbz-Gly-Gly-[ξI]-OMe), the T/C is 98 % of control under setting [9]; 96 % of control under setting [10]; 98 % of control (dose: 400.0 mg/kg/injection, schedule: Q04DX003 (ip), vehicle: Klucel (hydroxypropylcellulose) (HPC)).

As for `O=C(O)c1ccc(Br)c([N+](=O)[O-])c1`, the T/C is, setting by setting: under setting [4], 95 % of control; under setting [5], 94 % of control; under setting [16], 92 % of control.

In the case of `CN(C)c1ccc(-c2cc(C(=O)O)c3cc(I)ccc3n2)c(Cl)c1`, the T/C was 88 % of control under setting [11]; 86 % of control under setting [12]; 91 % of control (dose: 300.0 mg/kg/injection, schedule: Q01DX001 (ip), vehicle: saline).

As for `CC#CCOCC1CO1` (stereo not drawn), the T/C under setting [1] is 100 % of control; the T/C (dose: 100.0 mg/kg/injection, schedule: Q04DX003 (ip), vehicle: saline sonified) was 117 % of control; the T/C under setting [2] was 99 % of control; the T/C (dose: 200.0 mg/kg/injection, schedule: Q04DX003 (ip), vehicle: saline sonified) was 119 % of control; the T/C under setting [3] was 96 % of control; the T/C (dose: 400.0 mg/kg/injection, schedule: Q04DX003 (ip), vehicle: saline sonified) is 106 % of control.

(Values after PubChem BioAssay AID248 (DTP/NCI, 2004).)
